In BindingDB's records for doi:10.1016/j.ejmech.2020.112602 (Utah State University, 2020) one finds IC50 data, which are given here for 12 molecules.

The structures appear in SMILES notation. pIC50: −log10 of the molar value.

Experiment [1] is described as follows: Inhibition of human Cx26 expressed in Escherichia coli LB2003 cells in medium containing 4 mM K+ and 500 uM IPTG by measuring cell growth after 18 hrs by plate reader.
Experiment [2] can be described thus: Inhibition of human Cx43 expressed in Escherichia coli LB2003 cells in medium containing 8 mM K+ and 10 uM IPTG by measuring cell growth after 18 hrs by plate reader.

By pIC50 is commonly meant −log10 of the IC50, conventionally taken in molar units. A high value points to a small IC50. `NC[C@H]1O[C@H](O[C@H]2[C@H](O)[C@@H](O[C@H]3O[C@H](COc4ccc(Cl)cc4)[C@@H](O)[C@H](N)[C@H]3O)[C@H](N)C[C@@H]2N)[C@H](O)[C@@H](O)[C@@H]1O`: the pIC50 in experiment [1] is 4.76; in experiment [2], 5.05.
The molecule `CCCCCCCCCCCC(=O)NC[C@H]1O[C@H](O[C@H]2[C@H](O)[C@@H](O[C@H]3O[C@H](CO)[C@@H](O)[C@H](N)[C@H]3O)[C@H](N)C[C@@H]2N)[C@H](O)[C@@H](O)[C@@H]1O` showed a pIC50 in experiment [1] of 4.18.
The molecule `NC[C@H]1O[C@H](O[C@H]2[C@H](O)[C@@H](O[C@H]3O[C@H](COCc4ccc5ccccc5c4)[C@@H](OCc4ccc5ccccc5c4)[C@H](N)[C@H]3O)[C@H](N)C[C@@H]2N)[C@H](O)[C@@H](O)[C@@H]1O` had a pIC50 in experiment [2] of 5.21.
As for `Cc1ccc(OC[C@H]2O[C@H](O[C@@H]3[C@@H](O)[C@H](O[C@H]4O[C@H](CN)[C@@H](O)[C@H](O)[C@H]4O)[C@@H](N)C[C@H]3N)[C@H](O)[C@@H](N)[C@@H]2O)cc1`, the negative logarithm of the IC50 (pIC50) in experiment [1] is 4.31; in experiment [2], 5.21.
In experiment [2], `NC[C@H]1O[C@H](O[C@H]2[C@H](O)[C@@H](O[C@H]3O[C@H](COCc4ccc(Cl)cc4)[C@@H](OCc4ccc(Cl)cc4)[C@H](N)[C@H]3O)[C@H](N)C[C@@H]2N)[C@H](O)[C@@H](O)[C@@H]1O` gave a pIC50 of 4.77.
The same measure, in the same setting: the result for `NC[C@H]1O[C@H](O[C@H]2[C@H](O)[C@@H](O[C@H]3O[C@H](COCc4cccc(-c5ccccc5)c4)[C@@H](OCc4cccc(-c5ccccc5)c4)[C@H](N)[C@H]3O)[C@H](N)C[C@@H]2N)[C@H](O)[C@@H](O)[C@@H]1O` reads 5.26.
Molecule `NC[C@H]1O[C@H](O[C@H]2[C@H](O)[C@@H](O[C@H]3O[C@H](COCc4ccc(F)cc4)[C@@H](OCc4ccc(F)cc4)[C@H](N)[C@H]3O)[C@H](N)C[C@@H]2N)[C@H](O)[C@@H](O)[C@@H]1O` had a pIC50 in experiment [2] of 4.58.
On to `N[C@@H]1[C@@H](O)[C@@H](O[C@@H]2[C@@H](O)[C@H](O[C@H]3O[C@H](CNC(=O)c4ccccc4-c4c5ccc(=O)cc-5oc5cc(O)ccc45)[C@@H](O)[C@H](O)[C@H]3O)[C@@H](N)C[C@H]2N)O[C@H](CO)[C@H]1O`, for which the pIC50 in experiment [1] was 4.90; in experiment [2], 5.05.
In the same order, the values of `NC[C@H]1O[C@H](O[C@H]2[C@H](O)[C@@H](O[C@H]3O[C@H](COc4ccc(-c5nc6ccccc6[nH]5)cc4)[C@@H](O)[C@H](N)[C@H]3O)[C@H](N)C[C@@H]2N)[C@H](O)[C@@H](O)[C@@H]1O` are 5.22 and 4.75.
`Cc1ccc(COC[C@H]2O[C@H](O[C@@H]3[C@@H](O)[C@H](O[C@H]4O[C@H](CN)[C@@H](O)[C@H](O)[C@H]4O)[C@@H](N)C[C@H]3N)[C@H](O)[C@@H](N)[C@@H]2OCc2ccc(C)cc2)cc1` gave a pIC50 in experiment [2] of 5.51.
Take `N[C@@H]1[C@@H](O)[C@@H](O[C@@H]2[C@@H](O)[C@H](O[C@H]3O[C@H](CNC(=O)CCCc4cc5ccc6cccc7ccc(c4)c5c67)[C@@H](O)[C@H](O)[C@H]3O)[C@@H](N)C[C@H]2N)O[C@H](CO)[C@H]1O`: the results for the pIC50 in experiment [1] and in experiment [2] were 4.73 and 5.07, respectively.
Turning to `COc1ccc(COC[C@H]2O[C@H](O[C@@H]3[C@@H](O)[C@H](O[C@H]4O[C@H](CN)[C@@H](O)[C@H](O)[C@H]4O)[C@@H](N)C[C@H]3N)[C@H](O)[C@@H](N)[C@@H]2OCc2ccc(OC)cc2)cc1`, in experiment [2], the negative logarithm of the IC50 (pIC50) is 5.39.
